The text below walks through data of the supplement of paper PMC10627819.

Common to all, as to assay: Bliss interaction score (quartile over a dose matrix) (fitness difference); higher = more antagonism (negative = synergy)
In assay [1] the test system is S. pneumoniae D39V. An outline of the steps:
(§1)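 Fitness was OD595 at entry into stationary phase divided by the plate's robust no-drug mean and capped at 1; single-drug fitness was inferred from combination data. The Bliss score is observed minus expected (product) fitness, summarised by quartiles over technical, biological and donor/recipient replicates.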

Assay [2] deals with S. aureus Newman. An outline of the steps:
as §1

The test system of assay [3] is S. aureus DSM 20231. An outline of the steps: as §1
The subject of assay [4] is B. subtilis 168. In short, it runs like this:
as §1
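Note: first quartile when negative (synergy) and third quartile when positive (antagonism).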

Take `Cc1onc(-c2ccccc2)c1C(=O)N[C@@H]1C(=O)N2[C@@H]1SC(C)(C)[C@@H]2C(=O)O` [Oxacillin] + Oc1cc(Cl)ccc1Oc1ccc(Cl)cc1Cl [Triclosan]: the Bliss interaction score in assay [1] came to 0.0852; in assay [2], 0.0273; in assay [3], 0.0454; in assay [4] it was 0.025.
Turning to `C[n+]1ccc(-c2cc[n+](C)cc2)cc1` [Paraquat] + C/C(=C\C(=O)OCCCCCCCCC(=O)O)C[C@@H]1OC[C@H](C[C@@H]2O[C@H]2[C@@H](C)[C@H](C)O)[C@@H](O)[C@H]1O [Pseudomonic acid], the Bliss interaction score in assay [1] is -0.0863; in assay [2], 0.0152; in assay [3], 0.0093; in assay [4] it was 0.0715.
The like results for `C[n+]1ccc(-c2cc[n+](C)cc2)cc1` [Paraquat] + CC1(C)S[C@@H]2[C@H](NC(=O)Cc3ccccc3)C(=O)N2[C@H]1C(=O)O [PenicillinG] were, in that order, -0.0591, 0.0437, -0.0239 and -0.0267.
The like results for `C[n+]1ccc(-c2cc[n+](C)cc2)cc1` [Paraquat] + CC[C@H]1OC(=O)[C@H](C)C(=O)[C@H](C)[C@@H](O[C@@H]2O[C@H](C)C[C@H](N(C)C)[C@H]2O)[C@](C)(OC)C[C@@H](C)C(=O)[C@H](C)[C@H]2N(CCCCn3cnc(-c4cccnc4)c3)C(=O)O[C@]12C [Telithromycin] were, in that order, 0.0949, -0.0252, 0.0414 and -0.0235.
On the same counts, the results for `C[n+]1ccc(-c2cc[n+](C)cc2)cc1` [Paraquat] + Oc1cc(Cl)ccc1Oc1ccc(Cl)cc1Cl [Triclosan] are 0.058, -0.0576, 0.0434 and -0.188.
Regarding `Cn1c2cccc(=O)c-2nc2ccccc21` [Pyocyanin] + CC[C@H]1OC(=O)[C@H](C)C(=O)[C@H](C)[C@@H](O[C@@H]2O[C@H](C)C[C@H](N(C)C)[C@H]2O)[C@](C)(OC)C[C@@H](C)C(=O)[C@H](C)[C@H]2N(CCCCn3cnc(-c4cccnc4)c3)C(=O)O[C@]12C [Telithromycin], the Bliss interaction score is -0.0564 in assay [1], -0.0591 in assay [2], 0.0313 in assay [3] and -0.0145 in assay [4].
`Cn1c2cccc(=O)c-2nc2ccccc21` [Pyocyanin] + Oc1cc(Cl)ccc1Oc1ccc(Cl)cc1Cl [Triclosan]: the Bliss interaction score in assay [1] was -0.0544; in assay [2] it was 0.0494; in assay [3] it was 0.037; in assay [4], -0.0279.
In the case of `CN(N=O)C(=O)N[C@@H](C=O)[C@@H](O)[C@H](O)[C@H](O)CO` [Streptozotocin] + CC[C@H]1OC(=O)[C@H](C)C(=O)[C@H](C)[C@@H](O[C@@H]2O[C@H](C)C[C@H](N(C)C)[C@H]2O)[C@](C)(OC)C[C@@H](C)C(=O)[C@H](C)[C@H]2N(CCCCn3cnc(-c4cccnc4)c3)C(=O)O[C@]12C [Telithromycin], the Bliss interaction score in assay [1] is 0.0699; in assay [2] it was -0.0223; in assay [3], 0.0346; in assay [4], 0.0498.
For the compound `CN(N=O)C(=O)N[C@@H](C=O)[C@@H](O)[C@H](O)[C@H](O)CO` [Streptozotocin] + Cc1cc(NS(=O)(=O)c2ccc(N)cc2)no1 [Sulfamethoxazol], the Bliss interaction score in assay [1] is -0.0217; in assay [2], 0.0639; in assay [3] it was -0.0487; in assay [4] it was -0.0496.
On the same counts, the results for `CN(N=O)C(=O)N[C@@H](C=O)[C@@H](O)[C@H](O)[C@H](O)CO` [Streptozotocin] + Oc1cc(Cl)ccc1Oc1ccc(Cl)cc1Cl [Triclosan] are -0.0506, -0.0226, 0.0542 and 0.095.
The like results for `Cc1cc(NS(=O)(=O)c2ccc(N)cc2)no1` [Sulfamethoxazol] + CC[C@H]1OC(=O)[C@H](C)C(=O)[C@H](C)[C@@H](O[C@@H]2O[C@H](C)C[C@H](N(C)C)[C@H]2O)[C@](C)(OC)C[C@@H](C)C(=O)[C@H](C)[C@H]2N(CCCCn3cnc(-c4cccnc4)c3)C(=O)O[C@]12C [Telithromycin] were, in that order, -0.0611, 0.0359, 0.034 and -0.0301.
On the same counts, the results for `Cc1cc(NS(=O)(=O)c2ccc(N)cc2)no1` [Sulfamethoxazol] + Oc1cc(Cl)ccc1Oc1ccc(Cl)cc1Cl [Triclosan] are -0.0608, 0.0302, 0.0924 and 0.0965.
On to `CC[C@H]1OC(=O)[C@H](C)C(=O)[C@H](C)[C@@H](O[C@@H]2O[C@H](C)C[C@H](N(C)C)[C@H]2O)[C@](C)(OC)C[C@@H](C)C(=O)[C@H](C)[C@H]2N(CCCCn3cnc(-c4cccnc4)c3)C(=O)O[C@]12C` [Telithromycin] + CC1=C\[C@@H](O)CC(=O)Cc2nc(co2)C(=O)N2CCC=C2C(=O)O[C@H](C(C)C)[C@H](C)/C=C/C(=O)NC\C=C\1 [Virginiamycin M1], for which the Bliss interaction score in assay [1] was -0.037; in assay [2], -0.0314; in assay [3] it was -0.0529; in assay [4], -0.0239.
Consider `CC[C@H]1OC(=O)[C@H](C)C(=O)[C@H](C)[C@@H](O[C@@H]2O[C@H](C)C[C@H](N(C)C)[C@H]2O)[C@](C)(OC)C[C@@H](C)C(=O)[C@H](C)[C@H]2N(CCCCn3cnc(-c4cccnc4)c3)C(=O)O[C@]12C` [Telithromycin] + CN(C)c1cc(NC(=O)CNC(C)(C)C)c(O)c2c1C[C@H]1C[C@H]3[C@H](N(C)C)C(O)=C(C(N)=O)C(=O)[C@@]3(O)C(O)=C1C2=O [Tigecycline], for which the Bliss interaction score was -0.107 in assay [1], 0.0378 in assay [2], -0.0261 in assay [3] and 0.0616 in assay [4].
Consider `CC[C@H]1OC(=O)[C@H](C)C(=O)[C@H](C)[C@@H](O[C@@H]2O[C@H](C)C[C@H](N(C)C)[C@H]2O)[C@](C)(OC)C[C@@H](C)C(=O)[C@H](C)[C@H]2N(CCCCn3cnc(-c4cccnc4)c3)C(=O)O[C@]12C` [Telithromycin] + CN[C@H](CC(C)C)C(=O)N[C@H]1C(=O)N[C@@H](CC(N)=O)C(=O)N[C@H]2C(=O)N[C@H]3C(=O)N[C@H](C(=O)N[C@H](C(=O)O)c4cc(O)cc(O)c4-c4cc3ccc4O)[C@H](O)c3ccc(c(Cl)c3)Oc3cc2cc(c3O[C@@H]2O[C@H](CO)[C@@H](O)[C@H](O)[C@H]2O[C@H]2C[C@](C)(N)[C@H](O)[C@H](C)O2)Oc2ccc(cc2Cl)[C@H]1O [Vancomycin], for which the Bliss interaction score was 0.0519 in assay [1], 0.0259 in assay [2], -0.0478 in assay [3] and 0.0487 in assay [4].
